In patent publication US4720543A, “1a-7-substituted derivatives of mitomycin and uses thereof” (priority 1985, dated 1988):

Key:
[1] = system: Klebsiella Pneumonia; test: antibiotic activity, bacterial growth inhibition in culture; assay type: cell-based
Procedure: (§1) Bacteria were grown in a standard growth culture at pH 7.2. After the cultures were incubated at 37° C. overnight and diluted into fresh medium, controls and the test antibiotics dissolved in 0.3% hydroxy propylcellulose (HPC) were added at various concentrations and then reincubated overnight. The measure of antibiotic activity was determined by the amount of bacterial growth inhibition as shown by measurement of the optical density at 660 nm.

[2] = system: Listeria Sp.; test: as above; assay type: cell-based
Procedure: as §1

[3] = system: Staphylococcus Sp.; test: as above; assay type: cell-based
Procedure: as §1

[4] = system: WP2s (E. coli); test: as above; assay type: cell-based
Procedure: as §1

[5] = system: Pseudomonas Sp.; test: as above; assay type: cell-based
Procedure: as §1

[6] = system: W3100 (E. coli); test: as above; assay type: cell-based
Procedure: as §1

[7] = system: B16 melanoma; test: murine B16 melanoma antitumor activity; conditions: M-TAG 250 mg/kg or mitomycin C 4 mg/kg, i.p. day 1
Text: Activity against the murine B16 melanoma is currently being determined.

[8] = in vitro; conditions: human, bone marrow cells
Procedure: The human bone marrow CFU-C assay measures human bone marrow cells committed to granulocyte-macrophage differentiation. This in vitro assay serves as a model for predicting the relative toxicity of an experimental drug on the granulocytic series of the bone marrow. […] Both drugs were dissolved in 0.5% DMSO, and nucleated human bone marrow cells were exposed in vitro (for 90 minutes at 37° C.) to varying concentrations of each drug. The cells were then plated in triplicate in 3% agar for the CFU-C assay, using GCT, (Giant Cell Tumor) extract (Gibco, Grand Island, N.Y.) as colony-stimulating factor.

[9] = system: peripheral leukocyte (WBC); test: effects on peripheral leukocyte (WBC) count; assay type: in vivo, mice
Procedure: Comparative studies were performed with M-TAG and mitomycin C. Drug was dissolved in absolute ethanol, and then adjusted to a final concentration of 8% ethanol-92% sterile water. Blood samples obtained were diluted in 9.98 ml of Isoton (a neutral isotonic buffer solution) and counted in a Coulter counter after lysis with Zapoglobin (an enzyme solution which lyses red blood cells but not white blood cells). WBC counts are expressed as a percentage of values from control mice receiving drug vehicle only.

[10] = system: bone marrow; conditions: mice, rats, cats, dogs, and rhesus monkeys; cited from earlier work
[11] = system: P388 leukemia; test: murine P388 leukemia antitumor activity; assay type: in vivo; conditions: approximate LD10 dose (M-TAG 250 mg/kg; mitomycin C 4 mg/kg), day one
Procedure: The murine P388 leukemia system, maintained intraperitoneally in female DBA/2 mice, was used to evaluate antitumor activity.
The P388 antileukemic activity of the test compound (M-TAG) was assessed by mean survival days, percentage increased life span or %ILS, and number of survivors after 45 days. The %ILS was calculated as follows:
%ILS=(T-C)/C×100 where T is the mean survival days of the treated mice and C is the mean survival days of the untreated mice

[12] = toxic single doses in normal CD2F1 mice
Procedure: Drug was administered intraperitoneally (i.p.) in a volume of 0.1 ml per 10 grams body weight.

[13] = system: Ehrlich ascites; test: murine Ehrlich ascites antitumor activity; assay type: in vivo
Procedure: The antitumor activity of M-TAG for the murine Ehrlich ascities tumor was also determined. Ehrlich ascites was maintained i.p. in female BALB/C mice. For antitumor studies, 1×10^7 Ehrlich ascites cells (in 0.10 ml) were implanted i.p. in male BD2F1 mice. Drug was administered i.p. (single LD10 dose) one day after tumor implantation.

[14] = Escherichia coli, 0.04 mcg/ml, 37° C. overnight, read-out: amount of bacterial growth inhibition (first figure)
[15] = Escherichia coli, 0.4 mcg/ml, 37° C. overnight, read-out: amount of bacterial growth inhibition (first figure)
[16] = Escherichia coli, 4.0 mcg/ml, 37° C. overnight, read-out: amount of bacterial growth inhibition (first figure)
[17] = Escherichia coli, 40 mcg/ml, 37° C. overnight, read-out: amount of bacterial growth inhibition (first figure)
[18] = Escherichia coli, 400 mcg/ml, 37° C. overnight, read-out: amount of bacterial growth inhibition (first figure)

Structure (SMILES): CO[C@@]12[C@H](COC(N)=O)C3=C(C(=O)C(C)=C(N)C3=O)N1C[C@@H]1N[C@@H]12 [Mitomycin C, mitomycin C, reference compound]
- optical density at 660 nm (figure in parentheses) ([1]; 0.04 mcg/ml): 0.52
- optical density at 660 nm (figure in parentheses) ([1]; 0.4 mcg/ml): 0.086
- optical density at 660 nm (figure in parentheses) ([1]; 4.0 mcg/ml): 0.06
- optical density at 660 nm (figure in parentheses) ([1]; 400 mcg/ml): 0.13
- inhibition at 0.04 µg/mL ([1]; Klebsiella pneumoniae, 0.04 mcg/ml, 37° C. overnight, read-out: amount of bacterial growth inhibition (first figure)): 30%
- inhibition at 0.4 µg/mL ([1]; Klebsiella pneumoniae, 0.4 mcg/ml, 37° C. overnight, read-out: amount of bacterial growth inhibition (first figure)): 82%
- inhibition at 4 µg/mL ([1]; Klebsiella pneumoniae, 4.0 mcg/ml, 37° C. overnight, read-out: amount of bacterial growth inhibition (first figure)): 87%
- inhibition at 40 µg/mL ([1]; Klebsiella pneumoniae, 40 mcg/ml, 37° C. overnight, read-out: amount of bacterial growth inhibition (first figure)): 85%
- inhibition at 400 µg/mL ([1]; Klebsiella pneumoniae, 400 mcg/ml, 37° C. overnight, read-out: amount of bacterial growth inhibition (first figure)): 75%
- optical density at 660 nm (figure in parentheses) ([2]; 0.4 mcg/ml): 0.13
- optical density at 660 nm (figure in parentheses) ([2]; 4.0 mcg/ml): 0.03
- optical density at 660 nm (figure in parentheses) ([2]; 40 mcg/ml): 0.018
- optical density at 660 nm (figure in parentheses) ([2]; 400 mcg/ml): 0.018
- inhibition at 0.04 µg/mL ([2]; Listeria, 0.04 mcg/ml, 37° C. overnight, read-out: amount of bacterial growth inhibition (first figure)): 85%
- inhibition at 0.4 µg/mL ([2]; Listeria, 0.4 mcg/ml, 37° C. overnight, read-out: amount of bacterial growth inhibition (first figure)): 95%
- inhibition at 4 µg/mL ([2]; Listeria, 4.0 mcg/ml, 37° C. overnight, read-out: amount of bacterial growth inhibition (first figure)): 93%
- inhibition at 40 µg/mL ([2]; Listeria, 40 mcg/ml, 37° C. overnight, read-out: amount of bacterial growth inhibition (first figure)): 96%
- inhibition at 400 µg/mL ([2]; Listeria, 400 mcg/ml, 37° C. overnight, read-out: amount of bacterial growth inhibition (first figure)): 96%
- optical density at 660 nm (figure in parentheses) ([3]; 0.04 mcg/ml): 0.52
- optical density at 660 nm (figure in parentheses) ([3]; 0.4 mcg/ml): 0.03
- optical density at 660 nm (figure in parentheses) ([3]; 4.0 mcg/ml): 0.03
- optical density at 660 nm (figure in parentheses) ([3]; 40 mcg/ml): 0.041
- optical density at 660 nm (figure in parentheses) ([3]; 400 mcg/ml): 0.046
- inhibition at 0.04 µg/mL ([3]; Staphylococcus, 0.04 mcg/ml, 37° C. overnight, read-out: amount of bacterial growth inhibition (first figure)): 30%
- inhibition at 0.4 µg/mL ([3]; Staphylococcus, 0.4 mcg/ml, 37° C. overnight, read-out: amount of bacterial growth inhibition (first figure)): 93%
- inhibition at 4 µg/mL ([3]; Staphylococcus, 4.0 mcg/ml, 37° C. overnight, read-out: amount of bacterial growth inhibition (first figure)): 93%
- inhibition at 40 µg/mL ([3]; Staphylococcus, 40 mcg/ml, 37° C. overnight, read-out: amount of bacterial growth inhibition (first figure)): 91%
- inhibition at 400 µg/mL ([3]; Staphylococcus, 400 mcg/ml, 37° C. overnight, read-out: amount of bacterial growth inhibition (first figure)): 90%
- optical density at 660 nm (figure in parentheses) ([4]; 0.04 mcg/ml): 0.16
- inhibition at 0.04 µg/mL [4, 14]: 70%
- inhibition at 0.4 µg/mL [4, 15]: 86%
- inhibition at 4 µg/mL [4, 16]: 84%
- inhibition at 40 µg/mL [4, 17]: 85%
- inhibition at 400 µg/mL [4, 18]: 85%
- optical density at 660 nm (figure in parentheses) ([5]; 0.04 mcg/ml): 0.11
- optical density at 660 nm (figure in parentheses) ([5]; 0.4 mcg/ml): 0.11
- optical density at 660 nm (figure in parentheses) ([5]; 4.0 mcg/ml): 0.11
- optical density at 660 nm (figure in parentheses) ([5]; 40 mcg/ml): 0.14
- optical density at 660 nm (figure in parentheses) ([5]; 400 mcg/ml): 0.15
- inhibition at 0.04 µg/mL ([5]; Pseudomonas, 0.04 mcg/ml, 37° C. overnight, read-out: amount of bacterial growth inhibition (first figure)): 78%
- inhibition at 0.4 µg/mL ([5]; Pseudomonas, 0.4 mcg/ml, 37° C. overnight, read-out: amount of bacterial growth inhibition (first figure)): 78%
- inhibition at 4 µg/mL ([5]; Pseudomonas, 4.0 mcg/ml, 37° C. overnight, read-out: amount of bacterial growth inhibition (first figure)): 78%
- inhibition at 40 µg/mL ([5]; Pseudomonas, 40 mcg/ml, 37° C. overnight, read-out: amount of bacterial growth inhibition (first figure)): 72%
- inhibition at 400 µg/mL ([5]; Pseudomonas, 400 mcg/ml, 37° C. overnight, read-out: amount of bacterial growth inhibition (first figure)): 71%
- optical density at 660 nm (figure in parentheses) ([6]; 0.04 mcg/ml): 0.13
- optical density at 660 nm (figure in parentheses) ([6]; 0.4 mcg/ml): 0.051
- optical density at 660 nm (figure in parentheses) ([6]; 4.0 mcg/ml): 0.06
- inhibition at 0.04 µg/mL [6, 14]: 74%
- inhibition at 0.4 µg/mL [6, 15]: 89%
- inhibition at 4 µg/mL [6, 16]: 88%
- inhibition at 40 µg/mL [6, 17]: 80%
- inhibition at 400 µg/mL [6, 18]: 80%
- mice alive on day 20 [7]: 5 out of 10
- mice alive on day 10 ([7]; all vehicle-control mice died): All
- activity at 1.5 h, 1 µM [8]: 30%
- activity at 1.5 h, 5 µM [8]: 21%
- activity at 1.5 h, 10 µM [8]: < 10%
- WBC nadir, % of the control ([9]; 4 mg/kg i.p.): 76%
- WBC depression / myelotoxicity (in words) ([9]; LD10-range dose i.p., days 3, 4, 5, 6 and 10): significantly greater than that produced by an equitoxic dose of M-TAG (P<0.01)
- decrease in WBC counts ([9]; LD10 dose): 24%
- toxicity in animals (in words) [10]: severe bone marrow depression and gastrointestinal damage, and were delayed in onset
- % ILS [11]: 84%
- Mean Survival [11]: 21 days
- approximate LD10 dose (molar) ([12]; single i.p. dose): ~12 µmol/kg
- LD10 dose ([12]; single i.p. dose toxic to 10% of normal mice): ~4 mg/kg
- mice alive on Day 30 ([13]; 4 mg/kg i.p.): 50%
- % ILS ([13]; single approximate LD10 dose i.p. (M-TAG 250 mg/kg; mitomycin C 4 mg/kg), one day after implantation): 82%
